Legend:
[1] = Compound was evaluated for equilibrium constant, Ke; assay type: ADME
[2] = target: Opioid receptors; mu/kappa/delta (Homo sapiens, UniProt P41145+P41143+P35372); experiment: Evaluated the ability to protect against the irreversible antagonism of morphines effects by beta-FNA in guinea pig ileal longitudinal muscle.; assay type: functional, tissue-based, Cavia porcellus, Muscle tissue
[3] = Compound was tested for ability to protect against the irreversible antagonism of morphine''s effects by beta-FNA in guinea pig ileum at 200 nM concentration; assay type: functional
[4] = Compound was tested for ability to protect against the irreversible antagonism of morphine''s effects by beta-FNA in guinea pig ileum at 1 uM concentration; assay type: functional
[5] = Compound was tested for ability to protect against the irreversible antagonism of morphine''s effects by beta-FNA in guinea pig ileum at 10 nM concentration, ratio is IC50 after treatment/control IC50; assay type: functional
[6] = Compound was tested for ability to protect against the irreversible antagonism of morphine''s effects by beta-FNA in guinea pig ileum at 20 nM concentration; assay type: functional
[7] = Compound was tested for ability to protect against the irreversible antagonism of morphine''s effects by beta-FNA in guinea pig ileum at 2 nM concentration; assay type: functional
[8] = Effect of protecte expressed as morphine IC50 ratio (IC50 after treatment/control IC50) at 200 nM concentration; assay type: functional

Work on `C=CCN1CC[C@]23c4c5ccc(O)c4O[C@H]2[C@@H](O)C=C[C@H]3[C@H]1C5` [NALORPHINE] yielded a Ke [1] of 4.5, an IC50 [2] of 28 nM and a Ratio [3] of 1.9. For the same molecule, the Ratio [4] was 1.4.

`CCOc1ccc2c(c1)C1(C)CCN(CC3CC3)C(C2=O)C1C` (stereo unspecified) [ETHYLKETAZOCINE] showed an IC50 [2] of 0.6 nM and a Ratio [5] of 4.6.

`O=C1CC[C@@]2(O)[C@H]3Cc4ccc(O)c5c4[C@@]2(CCN3CC2CC2)[C@H]1O5` [NALTREXONE] gave a Ke [1] of 0.38, a Ratio [6] of 1 and a Ratio [7] of 2.4. The Ratio [8] was 1.

With `COC(=O)/C=C/C(=O)N[C@@H]1CC[C@@]2(O)C3Cc4ccc(O)c5c4C2(CCN3C)C1O5` (stereo partly specified) the IC50 [2] was 22 nM and the Ratio [4] was 5.2.

`C=CCN1CC[C@]23c4c5ccc(O)c4O[C@H]2C(=O)CC[C@@]3(O)[C@H]1C5` [NALOXONE] gave a Ke [1] of 1.2, a Ratio [6] of 1.9 and a Ratio [7] of 3.4. For the same molecule, the Ratio [8] was 1.1.
